{"source": "patent US20200305471A1", "about": "“METHODS AND COMPOSITIONS FOR IMPROVING THE TASTE OF DIET COLA SODAS AND OTHER BEVERAGES” (priority 2017, published 2020)", "key": {"[1]": {"conditions": "as sweet as sucrose; cited from earlier work"}, "[2]": {"conditions": "chemicals of externally-applied lavender or tea tree oils; NIH 2018; cited from earlier work"}, "[3]": {"assay": "Taste and/or aroma of Diet Coke after adding the substance (opinions of a few people)", "conditions": "for taste and/or aroma of Diet Coke after adding the substance: substance alone added to about 220 ml (7.5 ounces) Diet Coke, room temperature", "excerpt": "For the embodiments disclosed herein, the signifier “aroma” is used in preference to its synonyms: smell and odor (which have negative connotations), and scent (which has perfume connotations). The signifier “taste” is mostly used herein, and to a lesser extent, “flavor”, which often signifies a specific “taste”.\nTaste and aroma are not separate sensory experiences. […] This is attributed to the odor sensors in the nose being blocked. […] Thus, in many of the embodiments disclosed herein, the term “taste and/or aroma” is used.\nFor the exemplary embodiments that follow, the examples are performed with all liquids at room temperature. Sodas typically taste more flavorful at lower temperatures (sodas retain carbonation better at lower temperatures, which creates a better taste for many people). […] Tastes and/or aromas can also vary due to the use of soda container: glass, plastic or metal. There are many who think that cola sodas taste best when consumed from glass bottles. For many of the exemplary embodiments disclosed herein, Bodum Pavina Coffee Mugs, double-wall insulated glass mugs, 8 ounce size, are used.\nOne embodiment of an improved diet cola beverage product is understood with the following exemplary method and resulting exemplary article of manufacture. […] Any coca leaf extract with similar chemical components to ERC-A20 can be used—coca leaf extracts discussed below."}, "[4]": {"conditions": "cited from earlier work"}}}
{"molecule": "OC[C@@H](O)[C@@H](O)[C@H](O)[C@@H](O)CO", "note": "[sorbitol]", "values": [{"measurement": "sweetness relative to sucrose", "setting": "[1]", "result": "about 60%"}]}
{"molecule": "C=CC(C)(CCC=C(C)C)OC(C)=O", "note": "(centres unmarked) [linalyl acetate]", "values": [{"measurement": "contribution to abnormal breast growth (potential hormone disruptor)", "setting": "[2]", "result": "probably contributed to the abnormal breast growth"}]}
{"molecule": "CC1=CCC(O)(C(C)C)CC1", "note": "(centres unmarked) [4-terpineol]", "values": [{"measurement": "contribution to abnormal breast growth (potential hormone disruptor)", "setting": "[2]", "result": "probably contributed to the abnormal breast growth"}]}
{"molecule": "O=C([O-])c1ccccc1.[Na+]", "note": "[sodium benzoate, reference compound]", "values": [{"measurement": "taste and/or aroma of Diet Coke after adding the substance", "setting": "[3]", "result": "No improvement"}]}
{"molecule": "CC1=CC=C(C(C)C)CC1", "note": "[alpha-terpinene]", "values": [{"measurement": "contribution to abnormal breast growth (potential hormone disruptor)", "setting": "[2]", "result": "probably contributed to the abnormal breast growth"}]}
{"molecule": "C=C(C)[C@H]1CC=C(C)CC1", "note": "[limonene]", "values": [{"measurement": "contribution to abnormal breast growth (potential hormone disruptor)", "setting": "[2]", "result": "probably contributed to the abnormal breast growth"}]}
{"molecule": "CC1=CCC(C(C)C)=CC1", "note": "[gamma-terpinene]", "values": [{"measurement": "taste and/or aroma of Diet Coke after adding the substance", "setting": "[3]", "result": "while more pleasant as seen with adding alpha-terpineol, also has less of a “coca cola” taste"}]}
{"molecule": "CC1=CCC(C(C)(C)O)CC1", "note": "(stereo not drawn) [alpha-terpineol]", "values": [{"measurement": "taste and/or aroma of Diet Coke after adding the substance", "setting": "[3]", "result": "more pleasant"}, {"measurement": "contribution to abnormal breast growth (potential hormone disruptor)", "setting": "[2]", "result": "probably contributed to the abnormal breast growth"}]}
{"molecule": "COC(=O)c1ccccc1", "note": "[methyl benzoate]", "values": [{"measurement": "taste and/or aroma of Diet Coke after adding the substance", "setting": "[3]", "result": "improvement in Diet Coke taste similar to that of ethyl benzoate"}]}
{"molecule": "CC12CCC(CC1)C(C)(C)O2", "note": "[eucalyptol]", "values": [{"measurement": "contribution to abnormal breast growth (potential hormone disruptor)", "setting": "[2]", "result": "probably contributed to the abnormal breast growth"}]}
{"molecule": "O=S(=O)([O-])NC1CCCCC1.[Na+]", "note": "[sodium cyclamate]", "values": [{"measurement": "taste test preference, added to Diet Coke versus added to Coca-Cola Zero", "setting": "[3]; some taste tests, Diet Coke (total 2 artificial sweeteners) vs Coca-Cola Zero (3 artificial sweeteners)", "result": "more preferred"}]}
{"molecule": "CCOC(=O)c1ccccc1", "note": "[ethyl benzoate]", "values": [{"measurement": "taste and/or aroma of Diet Coke after adding the substance", "setting": "[3]", "result": "more pleasant than that of untreated Diet Coke"}, {"measurement": "solubility in water", "setting": "[4]", "result": 500, "unit": "micrograms/milliliter"}]}
{"molecule": "OC[C@H]1O[C@@](CO)(O[C@H]2O[C@H](CO)[C@@H](O)[C@H](O)[C@H]2O)[C@@H](O)[C@@H]1O", "note": "[sugar]", "values": [{"measurement": "taste of resulting beverage, sweetener added together with coca leaf extract", "setting": "[3]; 220 ml Diet Coke + one teaspoon coca leaf extract + sweetener (about one bag Sugar Twin; one to two bags sugar)", "result": "more pleasant tasting Diet Coke soda"}]}
{"molecule": "C=CC(C)(O)CCC=C(C)C", "note": "(centres unmarked) [linalool]", "values": [{"measurement": "taste and/or aroma of Diet Coke after adding the substance", "setting": "[3]", "result": "little-to-no change in the unpleasant"}, {"measurement": "contribution to abnormal breast growth (potential hormone disruptor)", "setting": "[2]", "result": "probably contributed to the abnormal breast growth"}]}
